Data reported in patent US7507729B2, “Substituted imidazo-[1,5-a][1,2,4]triazolo[1,5-d][1,4] benzodiazepine derivatives” (priority 2005, dated 2009).
Counter-ions that a name gives are not always drawn. Like-named read-outs stand apart in the source and are kept apart here.

How the values were obtained:
[1] = target: T1, GABA A receptor α1β3γ2 (hα1) (Homo sapiens, UniProt P14867+P18507); experiment: [3H]flumazenil competition binding, membranes of HEK293 cells expressing human GABA A α1β3γ2
T1 construct: expressed in transfected cells; host or cells: HEK293, transiently transfected; membranes
Description: (§1) The affinity of compounds at GABA A receptor subtypes was measured by competition for [^3H]flumazenil (85 Ci/mmol; Roche) binding to HEK293 cells expressing rat (stably transfected) or human (transiently transfected) receptors of composition α1β3γ2, α2β3γ2, α3β3γ2 and α5β3γ2.
(§2) Cell pellets were suspended in Krebs-tris buffer (4.8 mM KCl, 1.2 mM CaCl2, 1.2 mM MgCl2, 120 mM NaCl, 15 mM Tris; pH 7.5; binding assay buffer), homogenized by polytron for ca. 20 sec on ice and centrifuged for 60 min at 4° C. (50000 g; Sorvall, rotor: SM24=20000 rpm). The cell pellets were resuspended in Krebs-tris buffer and homogenized by polytron for ca. 15 sec on ice. Protein was measured (Bradford method, Bio-Rad) and aliquots of 1 mL were prepared and stored at −80° C.
(§3) Radioligand binding assays were carried out in a volume of 200 μL (96-well plates) which contained 100 μL of cell membranes, [^3H]flumazenil at a concentration of 1 nM for α1, α2, α3 subunits and 0.5 nM for α5 subunits and the test compound in the range of 10^−10-3×10^−6 M.
(§4) Nonspecific binding was defined by 10^−5 M diazepam and typically represented less than 5% of the total binding. Assays were incubated to equilibrium for 1 hour at 4° C. and harvested onto GF/C uni-filters (Packard) by filtration using a Packard harvester and washing with ice-cold wash buffer (50 mM Tris; pH 7.5). After drying, filter-retained radioactivity was detected by liquid scintillation counting. Ki values were calculated using Excel-Fit (Microsoft) and are the means of two determinations.

[2] = target: T2, GABA A receptor α5β3γ2 (hα5) (Homo sapiens, UniProt P18507+P31644); experiment: [3H]flumazenil competition binding, membranes of HEK293 cells expressing human GABA A α5β3γ2
T2 construct: expressed in transfected cells; host or cells: HEK293, transiently transfected; membranes
Description: as §1, §2, §3, §4

[3] = [3H]flumazenil 0.5 nM, 1 hour at 4° C., means of two determinations, read-out: Ki[nM] hα5
[4] = [3H]flumazenil 1 nM, 1 hour at 4° C., means of two determinations, read-out: Ki[nM] hα1

Row | Compound | Ki [1] [nM] | Ki [2, 3] [nM] | Ki [1, 4] [nM] | Ki [2] [nM]
1 | Clc1ccc2c(c1)-c1nc(Cn3nnc4ccccc43)nn1Cc1c(Cl)ncn1-2 [Example 22, 6-Benzotriazol-1-ylmethyl-3,10-dichloro-9H-imidazo[1,5-a][1,2,4]triazolo[1,5-d][1,4]benzodiazepine] | 53 | 0.4 | – | –
2 | Cc1ccc(Cc2nc3n(n2)Cc2c(C)ncn2-c2ccc(Cl)cc2-3)cn1 [Example 185, 3-Chloro-10-methyl-6-(6-methyl-pyridin-3-ylmethyl)-9H-imidazo[1,5-a][1,2,4]triazolo[1,5-d][1,4]benzodiazepine] | – | – | 248 | 0.9
3 | CN1CCN(Cc2nc3n(n2)Cc2c(Cl)ncn2-c2ccc(Br)cc2-3)C1=O [Example 300, 3-Bromo-10-chloro-6-(3-methyl-2-oxo-imidazolidin-1-ylmethyl)-9H-imidazo[1,5-a][1,2,4]triazolo[1,5-d][1,4]benzodiazepine] | 62.1 | 0.7 | – | –
4 | O=C1CSC(=O)N1Cc1nc2n(n1)Cc1c(Cl)ncn1-c1ccc(Br)cc1-2 [Example 309, 3-Bromo-10-chloro-6-(2,4-dioxo-thiazolidin-3-ylmethyl)-9H-imidazo[1,5-a][1,2,4]triazolo[1,5-d][1,4]benzodiazepine] | 55.2 | 0.5 | – | –
5 | O=C1NCCN1Cc1nc2n(n1)Cc1c(Cl)ncn1-c1ccc(Br)cc1-2 [Example 301, 3-Bromo-10-chloro-6-(2-oxo-imidazolidin-1-ylmethyl)-9H-imidazo[1,5-a][1,2,4]triazolo[1,5-d][1,4]benzodiazepine] | – | 0.7 | 50.5 | –
6 | Cc1noc(Cc2nc3n(n2)Cc2c(Cl)ncn2-c2ccc(Br)cc2-3)n1 [Example 72, 3-Bromo-10-chloro-6-(3-methyl-[1,2,4]oxadiazol-5-ylmethyl)-9H-imidazo[1,5-a][1,2,4]triazolo[1,5-d][1,4]benzodiazepine] | 98.2 | 0.7 | – | –
7 | Cc1ncn2c1Cn1nc(Cc3ccncc3)nc1-c1cc(Br)ccc1-2 [Example 122, 3-Bromo-10-methyl-6-(pyridine-4-ylmethyl)-9H-imidazo[1,5-a][1,2,4]triazolo[1,5-d][1,4]benzodiazepine] | – | – | 150 | 0.5
8 | Cc1ncn2c1Cn1nc(Cc3cccnc3)nc1-c1ccccc1-2 [Example 265, 10-Methyl-6-(pyridine-3-ylmethyl)-9H-imidazo[1,5-a][1,2,4]triazolo[1,5-d][1,4]benzodiazepine] | 39.3 | 0.62 | – | –
9 | Cc1cc(Cc2nc3n(n2)Cc2c(C)ncn2-c2ccc(Cl)cc2-3)on1 [Example 183, 3-Chloro-10-methyl-6-(3-methyl-isoxazol-5-ylmethyl)-9H-imidazo[1,5-a][1,2,4]triazolo[1,5-d][1,4]benzodiazepine hydrochloride (1:1)] | – | – | 279 | 0.6
10 | O=C1SCCN1Cc1nc2n(n1)Cc1c(Cl)ncn1-c1ccc(Br)cc1-2 [Example 312, 3-Bromo-10-chloro-6-(2-oxo-thiazolidin-3-ylmethyl)-9H-imidazo[1,5-a][1,2,4]triazolo[1,5-d][1,4]benzodiazepine] | 60 | 0.5 | – | –
11 | Cc1noc(Cc2nc3n(n2)Cc2c(C)ncn2-c2ccc(Br)cc2-3)n1 [Example 349, 3-Bromo-10-methyl-6-(3-methyl-[1,2,4]oxadiazol-5-ylmethyl)-9H-imidazo[1,5-a][1,2,4]triazolo[1,5-d][1,4]benzodiazepine] | – | – | 469 | 0.9
12 | O=C(Cc1nc2n(n1)Cc1c(Cl)ncn1-c1ccc(Br)cc1-2)NC1CCCC1 [Example 61, 3-Bromo-10-chloro-6-cyclopentylcarbamoylmethyl-9H-imidazo[1,5-a][1,2,4]triazolo[1,5-d][1,4]benzodiazepine] | 91.7 | 0.6 | – | –
13 | 3-Bromo-10-chloro-6-(hydroxy-phenyl-ethyl)-9H-imidazo[1,5-a][1,2,4]triazolo[1,5-d][1,4]benzodiazepine [Example 54] | – | 0.9 | 34.6 | –
14 | CCOC(=O)c1ncn2c1Cn1nc(COC)nc1-c1cc(Cl)ccc1-2 [Example 4, Ethyl 3-chloro-6-methoxymethyl-9H-imidazo[1,5-a][1,2,4]triazolo[1,5-d][1,4]benzodiazepine-10-carboxylate] | 8.5 | 0.3 | – | –
15 | O=C1CCCN1Cc1nc2n(n1)Cc1c(Cl)ncn1-c1ccc(Br)cc1-2 [Example 49, 3-Bromo-10-chloro-6-(2-oxo-pyrrolidin-1-ylmethyl)-9H-imidazo[1,5-a][1,2,4]triazolo[1,5-d][1,4]benzodiazepine] | 114 | 0.9 | – | –
16 | C[C@H]1CN(Cc2nc3n(n2)Cc2c(Cl)ncn2-c2ccc(Br)cc2-3)C(=O)O1 [Example 314, 3-Bromo-10-chloro-6-((5S)-5-methyl-2-oxo-oxazolidin-3-ylmethyl)-9H-imidazo[1,5-a][1,2,4]triazolo[1,5-d][1,4]benzodiazepine] | 32.3 | 0.7 | – | –
17 | Cc1ncn2c1Cn1nc(Cc3ccncc3)nc1-c1ccccc1-2 [Example 267, 10-Methyl-6-(pyridine-4-ylmethyl)-9H-imidazo[1,5-a][1,2,4]triazolo[1,5-d][1,4]benzodiazepine] | 20.4 | 0.25 | – | –
18 | O=C(Cc1nc2n(n1)Cc1c(Cl)ncn1-c1ccc(Br)cc1-2)NCC1CC1 [Example 64, 3-Bromo-10-chloro-6-[(cyclopropylmethyl-carbamoyl)-methyl]-9H-imidazo[1,5-a][1,2,4]triazolo[1,5-d][1,4]benzodiazepine] | 68.8 | 0.5 | – | –
19 | OC(c1cccnc1)c1nc2n(n1)Cc1c(Cl)ncn1-c1ccc(Br)cc1-2 (stereo not shown) [Example 58, 3-Bromo-10-chloro-6-(hydroxy-pyridin-3-yl-methyl)-9H-imidazo[1,5-a][1,2,4]triazolo[1,5-d][1,4]benzodiazepine] | – | 0.7 | 69.4 | –
20 | Cc1ccc2c(c1)-c1nc(Cc3cc(C)no3)nn1Cc1c(C)ncn1-2 [Example 236, 3,10-Dimethyl-6-(3-methyl-isoxazol-5-ylmethyl)-9H-imidazo[1,5-a][1,2,4]triazolo[1,5-d][1,4]benzodiazepine] | – | – | 496 | 0.8
21 | O=C(Cc1nc2n(n1)Cc1c(Cl)ncn1-c1ccc(Br)cc1-2)NCc1cccnc1 [Example 63, 3-Bromo-10-chloro-6-{[(Pyridin-3-ylmethyl)-carbamoyl]-methyl}-9H-imidazo[1,5-a][1,2,4]triazolo[1,5-d][1,4]benzodiazepine] | 64.7 | 0.8 | – | –
22 | O=C1CCC(=O)N1Cc1nc2n(n1)Cc1c(Cl)ncn1-c1ccc(Br)cc1-2 [Example 310, 3-Bromo-10-chloro-6-(2,5-dioxo-pyrrolidin-1-ylmethyl)-9H-imidazo[1,5-a][1,2,4]triazolo[1,5-d][1,4]benzodiazepine] | – | 0.7 | 69.7 | –
23 | Cc1ncn2c1Cn1nc(Cn3ncccc3=O)nc1-c1cc(Br)ccc1-2 [Example 330, 3-Bromo-10-methyl-6-(6-oxo-6H-pyridazin-1-ylmethyl)-9H-imidazo[1,5-a][1,2,4]triazolo[1,5-d][1,4]benzodiazepine hydrochloride (1:1)] | – | – | 134 | 0.7
24 | Clc1ccc2c(c1)-c1nc(Cn3cccn3)nn1Cc1c(Cl)ncn1-2 [Example 13, 3,10-Dichloro-6-pyrazol-1-ylmethyl-9H-imidazo[1,5-a][1,2,4]triazolo[1,5-d][1,4]benzodiazepine] | 30.7 | 0.9 | – | –
25 | Ethyl 3-bromo-6-methoxymethyl-9H-imidazo[1,5-a][1,2,4]triazolo[1,5-d][1,4]benzodiazepine-10-carboxylate [Example 38] | – | 0.4 | 6.9 | –
26 | Cc1ncn2c1Cn1nc(Cn3ccnc3)nc1-c1ccccc1-2 [Example 275, 6-(Imidazol-1-ylmethyl)-10-methyl-9H-imidazo[1,5-a][1,2,4]triazolo[1,5-d][1,4]benzodiazepine hydrochloride (1:1)] | 33.6 | 0.6 | – | –
27 | O=C(Cc1nc2n(n1)Cc1c(Cl)ncn1-c1ccc(Br)cc1-2)NC1CCOCC1 [Example 62, 3-Bromo-10-chloro-6-[(tetrahydro-pyran-4-ylcarbamoyl)-methyl]-9H-imidazo[1,5-a][1,2,4]triazolo[1,5-d][1,4]benzodiazepine] | 88.4 | 0.7 | – | –
28 | Cc1ncn2c1Cn1nc(Cc3ccccn3)nc1-c1ccccc1-2 [Example 261, 10-Methyl-6-(pyridine-2-ylmethyl)-9H-imidazo[1,5-a][1,2,4]triazolo[1,5-d][1,4]benzodiazepine] | 26.6 | 0.7 | – | –
29 | Cc1cc(Cc2nc3n(n2)Cc2c(C)ncn2-c2ccc(Br)cc2-3)on1 [Example 123, 3-Bromo-10-methyl-6-(3-methyl-isoxazol-5-ylmethyl)-9H-imidazo[1,5-a][1,2,4]triazolo[1,5-d][1,4]benzodiazepine] | – | – | 188 | 0.6
